Assay results published in patent US20110251134A1, “COMBINATION OF (A) A DNA TOPOSOMERASE INHIBITOR AND (B) AN IAP INHIBITOR” (priority 2004, published 2011).
Blank lines part the entries; values can stand above or below the compound they belong to.

Tests used:
melanoma model = assay: growth in a melanoma model; type: cell-based
caspase-3 = caspase-3 activity in a breast tumor model; type: cell-based
Method: In a breast tumor model, both compound C and topotecan (1 nM) individually increase caspase-3 activity less than two fold over the control. A nearly twelve fold increase in caspase-3 activity is seen with the same amount of compound C at a concentration of about 1 nM topotecan.

Compound: CC[C@@]1(O)C(=O)OCc2c1cc1n(c2=O)Cc2cc3ccccc3nc2-1 [camptothecin, Camptothecin]
- growth (melanoma model; camptothecin 5 nM alone): about 50 % of control

- increase in caspase-3 activity over the control (caspase-3; topotecan 1 nM alone): less than two
Compound: CC[C@@]1(O)C(=O)OCc2c1cc1n(c2=O)Cc2cc3c(CN(C)C)c(O)ccc3nc2-1 [topotecan]

Compound: CN[C@@H](C)C(=O)N[C@H](C(=O)N1CCC[C@H]1C(=O)NC(Cc1ccccc1)Cc1ccccc1)C(C)C [compound D]
- growth (melanoma model; compound D 250 nM alone): about 90 % of control

- increase in caspase-3 activity over the control (caspase-3; compound C alone): less than two
Compound: CN[C@@H](C)C(=O)N[C@H](C(=O)N1C[C@@H](NC(=O)CC2CCCCC2)C[C@H]1C(=O)NCCc1ccccc1)C(C)C [compound C]
